# Measurements reported in ChEMBL document CHEMBL6121011, “An oxidation-reduction-triggered thiamine disulfide-based prodrug of 10-hydroxycamptothecin for selective tumor cell locking and therapeutic delivery” (Eur J Med Chem, 2025).
# Activity calls are given as the source filed them. The calls are words filed in the database; no cut-off is given here.
# Assays:
# [1] = Prodrug release in human MCF-10A cells assessed as Nap release at 20 uM measured after 2 hrs by confocal microscopy; type: ADME, cell-based
# [2] = Drug internalization in mouse 4T1 cells assessed as green fluorescence in cytoplasm at 20 uM measured after 8 hrs by CLSM analysis; type: ADME, cell-based; details: 4t1, 8 h
# [3] = Prodrug release in human MDA-MB-231 cells assessed as Nap release at 20 uM measured after 2 hrs by confocal microscopy; type: ADME, cell-based; details: mda-mb-231, 2 h
# [4] = Prodrug stability in 5 uM to 5 mM GSH assessed as compound remaining at 20 uM measured for 24 hrs by RP-HPLC analysis; type: ADME
# [5] = Drug internalization in mouse 4T1 cells assessed as fold change in green fluorescence in cytoplasm at 20 uM measured after 8 hrs by flow cytometry relative to K-Nap; type: ADME, cell-based; details: 4t1, 8 h
# [6] = Drug internalization in mouse 4T1 cells assessed as fold change in green fluorescence in cytoplasm at 20 uM measured after 8 hrs by flow cytometry relative to TD-Nap; type: ADME, cell-based; details: 4t1, 8 h
# [7] = Drug localization in mitochondria of mouse 4T1 cells at 20 uM measured after 2 hrs by CLSM analysis; type: ADME; details: 4t1, 2 h
# [8] = Drug localization in cytoplasm of mouse 4T1 cells at 20 uM measured after 2 hrs by CLSM analysis; type: ADME, subcellular; details: 4t1, 2 h
# 4T1 [9] = assay: Cytotoxicity against mouse 4T1 cells assessed as cell viability at 5 to 50 uM incubated for 24 hrs by CCK8 assay relative to control; type: functional; details: dose 5-50 µM
# [10] = Cytotoxicity against human MCF-10A cells assessed as cell viability at 5 to 50 uM incubated for 24 hrs by CCK8 assay relative to control; type: toxicity, cell-based; details: dose 5-50 µM, read-out: Activity
# [11] = Drug internalization in mouse 4T1 cells assessed as green fluorescence in cytoplasm at 20 uM measured after 2 hrs by CLSM analysis; type: ADME, cell-based; details: 4t1, 2 h
# [12] = Drug localization in mitochondria of mouse 4T1 cells at 20 uM measured after 2 hrs by flow cytometry; type: ADME; details: 4t1, 2 h
# [13] = Prodrug release in mouse 4T1 cells assessed as Nap release at 20 uM measured after 2 hrs by confocal microscopy; type: ADME, cell-based; details: 4t1, 2 h
# [14] = Drug internalization in mouse 4T1 cells assessed as green fluorescence in cytoplasm at 20 uM measured after 1 hr by CLSM analysis; type: ADME, cell-based; details: 4t1, 1 h
# 4T1 [15] = assay: Induction of intracellular ROS generation in mouse 4T1 cells assessed as fold increase in DCF fluorescence at 0.5 uM incubated for 24 hrs by DCFH-DA probe based CLSM analysis relative to control; type: functional
# [16] = Prodrug release in human MCF7 cells assessed as Nap release at 20 uM measured after 2 hrs by confocal microscopy; type: ADME, cell-based; details: mcf7, 2 h
# MCF7 = assay: Antiproliferative activity against human MCF7 cells incubated for 48 hrs by CCK8 assay; type: functional, cell-based; details: MCF7, 48 h
# 4T1 [17] = assay: Antiproliferative activity against mouse 4T1 cells incubated for 48 hrs by CCK8 assay; type: functional, cell-based; details: 4T1, 48 h
# PC-3 = assay: Antiproliferative activity against human PC-3 cells incubated for 48 hrs by CCK8 assay; type: functional, cell-based; details: PC-3, 48 h
# MDA-MB-231 = assay: Antiproliferative activity against human MDA-MB-231 cells incubated for 48 hrs by CCK8 assay; type: functional, cell-based; details: MDA-MB-231, 48 h
# HepG2 = assay: Antiproliferative activity against human HepG2 cells incubated for 48 hrs by CCK8 assay; type: functional, cell-based; details: HepG2, 48 h
# [18] = Antiproliferative activity against human MCF-10A cells incubated for 48 hrs by CCK8 assay; type: toxicity, cell-based
# U-87 MG = assay: Antiproliferative activity against human U-87 MG cells incubated for 48 hrs by CCK8 assay; type: functional, cell-based, U-87MG ATCC
# [19] = Prodrug stability in 10 mM H2O2 assessed as compound remaining at 18 uM measured after 12 hrs by RP-HPLC analysis; type: ADME
# [20] = Toxicity in BALB/c mouse implanted with mouse 4T1 cells assessed as animal death administered intravenously once every two days at equivalent dose of 10 mg/kg of HCPT for 14 days; type: organism-based; details: in vivo, iv, 336 h, time 14 day
# [21] = AUC in Sprague-Dawley rat assessed as fold change at 24 mg/kg, iv by HPLC-MS analysis relative to HCPT; type: ADME, organism-based; details: in vivo
# 4T1 [22] = assay: Anti-metastatic activity in mouse 4T1 cells assessed as wound closure at 0.5 uM incubated for 24 hrs by scratch-wound assay (reference value: 42 %); type: functional
# [23] = Toxicity in BALB/c mouse implanted with mouse 4T1 cells assessed as damage in major organ tissues administered intravenously once every two days at equivalent dose of 10 mg/kg of HCPT for 14 days; type: organism-based; details: in vivo, iv, 336 h, time 14 day
# 4T1 [24] = assay: Antitumor activity against mouse 4T1 cells implanted in BALB/c mouse assessed as reduction in tumor weight administered intravenously once every two days at equivalent dose of 10 mg/kg of HCPT for 14 days; type: functional, organism-based; details: route iv, time 14.0 day
# 4T1 [25] = assay: Induction of mitochondrial damage in mouse 4T1 cells assessed as increase in green fluorescence at 0.5 uM incubated for 24 hrs by JC-1 staining based CLSM analysis; type: functional, cell-based
# [26] = AUC in Sprague-Dawley rat at 24 mg/kg, iv by HPLC-MS analysis; type: ADME, organism-based; details: in vivo
# [27] = Cmax in Sprague-Dawley rat at 24 mg/kg, iv by HPLC-MS analysis; type: ADME, organism-based; details: in vivo
# [28] = Prodrug stability in 5 mM GSH assessed as compound remaining at 18 uM measured after 12 hrs by RP-HPLC analysis; type: ADME
# [29] = Terminal elimination half life in Sprague-Dawley rat at 24 mg/kg, iv by HPLC-MS analysis; type: ADME, organism-based; details: in vivo, read-out: LambdaZ (converted)
# [30] = Toxicity in BALB/c mouse implanted with mouse 4T1 cells assessed as body weight loss administered intravenously once every two days at equivalent dose of 10 mg/kg of HCPT for 14 days; type: organism-based; details: in vivo, iv, 336 h, time 14 day
# [31] = Cmax in Sprague-Dawley rat assessed as fold change at 24 mg/kg, iv by HPLC-MS analysis relative to HCPT; type: ADME, organism-based; details: in vivo
# [32] = Prodrug stability in 100 mM H2O2 assessed as compound remaining at 18 uM measured after 2 hrs by RP-HPLC analysis; type: ADME
# 4T1 [33] = assay: Antitumor activity against mouse 4T1 cells implanted in BALB/c mouse assessed as increase in pyknotic cells with highly condensed nuclei administered intravenously once every two days at equivalent dose of 10 mg/kg of HCPT for 14 days by H and E staining based analysis; type: functional, organism-based; details: route iv, time 14.0 day
# [34] = Prodrug stability in 5 uM GSH assessed as compound remaining at 18 uM measured after 24 hrs by RP-HPLC analysis; type: ADME
# 4T1 [35] = assay: Antitumor activity against mouse 4T1 cells implanted in BALB/c mouse assessed as tumor growth inhibition administered intravenously once every two days at equivalent dose of 10 mg/kg of HCPT for 14 days; type: functional, organism-based; details: route iv, time 14.0 day
# 4T1 [36] = assay: Antitumor activity against mouse 4T1 cells implanted in BALB/c mouse assessed as reduction in tumor size administered intravenously once every two days at equivalent dose of 10 mg/kg of HCPT for 14 days; type: functional, organism-based; details: route iv, time 14.0 day
# [37] = Toxicity in BALB/c mouse implanted with mouse 4T1 cells assessed as animal death at 10 mg/kg, iv once every two days measured for 9 to 10 days; type: organism-based; details: in vivo, time 9-10 day
# [38] = AUC in Sprague-Dawley rat at 10 mg/kg, iv by HPLC-MS analysis; type: ADME, organism-based; details: in vivo
# 4T1 [39] = assay: Antitumor activity against mouse 4T1 cells implanted in BALB/c mouse assessed as tumor growth inhibition at 10 mg/kg, iv once every two days for 14 days; type: functional, organism-based; details: time 14.0 day
# [40] = Cmax in Sprague-Dawley rat at 10 mg/kg, iv by HPLC-MS analysis; type: ADME, organism-based; details: in vivo
# 4T1 [41] = assay: Induction of intracellular ROS generation in mouse 4T1 cells at 0.5 uM incubated for 24 hrs by DCFH-DA probe based CLSM analysis; type: functional, cell-based
SMILES,Drug uptake [2],Drug uptake [7],Drug uptake [8],Drug uptake [14],IC50 (MCF7) [µM],IC50 (4T1 [17]) [µM],IC50 (PC-3) [µM],IC50 (MDA-MB-231) [µM],IC50 (HepG2) [µM],IC50 at 48 h [18] [µM],IC50 (U-87 MG) [µM],Activity [20],Activity (4T1 [22]) [%],Activity [23],Activity (4T1 [25]),Activity [30],inhibition (4T1 [35]),Activity (4T1 [41]),also measured
CCCN1C(=O)c2cccc3c(OC(=O)CCCSC(C)(C)SCCCC(=O)OCC/C(SSCC(C)C)=C(\C)N(C)C=O)ccc(c23)C1=O,Active,Active,Active,Active,–,–,–,–,–,–,–,–,–,–,–,–,–,–,"Drug metabolism [1]: metabolite_notdetected; Drug metabolism [3]: metabolite_detected; Stability [4]: Stable; fold change (FC) [5]: ~ 2; fold change (FC) [6]: ~ 2; Activity (4T1 [9]): >90%; viability at 24 h, 50 µM [10]: > 90%; Drug uptake [11]: Active; Drug uptake [12]: Active; Drug metabolism [13]: metabolite_detected; fold change (FC) (4T1 [15]): ~6.5; Drug metabolism [16]: metabolite_detected"
CCCN1C(=O)c2cccc3c(OC(=O)CCC(=O)OCC/C(SSCC(C)C)=C(\C)N(C)C=O)ccc(c23)C1=O,Not_active,Active,Active,Active,–,–,–,–,–,–,–,–,–,–,–,–,–,–,–
C/C(=C(\CCOC(=O)CCCSC(C)(C)SCCCC(=O)O)SSCC(C)C)N(C)C=O,–,–,–,–,> 100,> 100,> 100,> 100,> 100,> 100,> 100,–,–,–,–,–,–,–,–
CC[C@@]1(O)C(=O)OCc2c1cc1n(c2=O)Cc2cc3cc(OC(=O)CCCSC(C)(C)SCCCC(=O)OCC/C(SSCC(C)C)=C(\C)N(C)C=O)ccc3nc2-1,–,–,–,–,1.02,0.96,1.39,5.43,1.01,33.3,4.05,Non-toxic,11,Non-toxic,Active; Most Potential Among Tested Compounds,Non-toxic,Active; Most Pronounced Effect Observed Among Tested Compounds,–,Stability [19]: < 12%; fold change (FC) [21]: 2; Activity (4T1 [24]): Active; Lowest Tumor Weigth Observed Among Tested Compounds; AUC [26]: 2.72 µg·h/mL; Cmax [27]: 7.45 µg/mL; Stability [28]: <= 10%; half-life [29]: 3.24 h; fold change (FC) [31]: 4; Stability [32]: Unstable; Activity (4T1 [33]): Active; Stability [34]: 84.8%; Activity (4T1 [36]): Active; Exhibited Smallest Tumor Among Tested Compounds
CCCN1C(=O)c2cccc3c(OC(=O)CCCSC(C)(C)SCCCC(=O)OCC)ccc(c23)C1=O,Active,Active,Active,Active,–,–,–,–,–,–,–,–,–,–,–,–,–,–,Drug uptake [11]: Active
CC[C@@]1(O)C(=O)OCc2c1cc1n(c2=O)Cc2cc3cc(O)ccc3nc2-1 [HYDROXYCAMPTOTHECIN],–,–,–,–,1.09,1.71,1.46,3.12,0.95,3.17,2.43,–,~34,–,Active; Moderate Activity Observed,–,–,Active; Moderate Elevations Observed,Activity [37]: Toxic; AUC [38]: 1.02 µg·h/mL; inhibition (4T1 [39]): Active; Moderate Effect Observed; Cmax [40]: 1.95 µg/mL
CCOC(=O)CCCSC(C)(C)SCCCC(=O)Oc1ccc2nc3c(cc2c1)Cn1c-3cc2c(c1=O)COC(=O)[C@]2(O)CC,–,–,–,–,4.21,3.78,1.93,7.02,1.47,20.7,6.24,Non-toxic,~34,Non-toxic,Active,Non-toxic,Active; Moderate Effect Observed,inactive,–
CC[C@@]1(O)C(=O)OCc2c1cc1n(c2=O)Cc2cc3cc(OC(=O)CCC(=O)OCC/C(SSCC(C)C)=C(\C)N(C)C=O)ccc3nc2-1,–,–,–,–,7.32,5.34,3.45,10.4,5.32,10.5,5.48,Non-toxic,~25,Non-toxic,Active,Non-toxic,Active; Moderate Effect Observed,inactive,–
